The values below come from ChEMBL document CHEMBL1153773, “Structure-activity relationship of seco-tanapartholides isolated from Achillea falcata for inhibition of HaCaT cell growth” (Eur J Med Chem, 2009).

Each structure is given as a SMILES string. ≈ marks a conversion by molar mass, not a printed value. Calls of active or inactive are those of the source. The rule behind the calls is not given here.

Data set [1] has as its system HaCaT. Put plainly: Cytotoxicity against human HaCaT cells after 24 hrs by MTT assay. Type of data set: functional, cell-based.
Data set [2] concerns HaCaT. Put plainly: Cytotoxicity against human HaCaT cells assessed as lactate dehydrogenase release at 15 ug/ml after 6 hrs by ELISA. It is filed as functional.
Data set [3] deals with HaCaT. Kind of data set: Cytotoxicity against human HaCaT cells assessed as lactate dehydrogenase release at 50 ug/ml after 6 hrs by ELISA. Type of data set: functional.
Data set [4] relates to HaCaT. Put plainly: Cytotoxicity against human HaCaT cells assessed as lactate dehydrogenase release at 5 ug/ml after 6 hrs by ELISA. Type of data set: functional.
Data set [5] concerns HaCaT. Kind of data set: Cytotoxicity against human HaCaT cells assessed as lactate dehydrogenase release at 75 ug/ml after 6 hrs by ELISA. Type of data set: functional.
The test system of data set [6] is HaCaT. Kind of data set: Cytotoxicity against human HaCaT cells assessed as lactate dehydrogenase release at 20 ug/ml after 6 hrs by ELISA. Type of data set: functional.
Data set [7] deals with HaCaT. Put plainly: Cytotoxicity against human HaCaT cells assessed as lactate dehydrogenase release at 100 ug/ml after 6 hrs by ELISA. Type of data set: functional.
In data set [8] the test system is HaCaT. Put plainly: Cytotoxicity against human HaCaT cells assessed as lactate dehydrogenase release at 25 ug/ml after 6 hrs by ELISA. It is filed as functional.
For data set [9], the system named is HaCaT. Kind of data set: Cytotoxicity against human HaCaT cells assessed as lactate dehydrogenase release at 10 ug/ml after 6 hrs by ELISA. Type of data set: functional.
Data set [10] can be described thus: Cytotoxicity against human Keratinocyte cells assessed as reduction in cell viability at 5 ug/ml after 24 hrs by MTT assay. It is filed as cell-based.
Data set [11] in a line: Cytotoxicity against human keratinocytes at 25 ug/ml. It is filed as cell-based. The conditions noted are these: keratinocyte.
The subject of data set [12] is HaCaT. Kind of data set: Cell cycle arrest in human HaCaT cells assessed as accumulation at G2/M phase after 24 hrs. It is filed as functional, cell-based.
A short description of data set [13]: Cytotoxicity against human Keratinocyte cells assessed as reduction in cell viability at 10 ug/ml after 24 hrs by MTT assay. Type of data set: cell-based.
The test system of data set [14] is HaCaT. Put plainly: Cytotoxicity against human HaCaT cells assessed as reduction in cell viability at 5 ug/ml after 24 hrs by MTT assay. Type of data set: functional.
Data set [15] deals with HaCaT. Kind of data set: Cytotoxicity against human HaCaT cells assessed as reduction in cell viability at 10 ug/ml after 24 hrs by MTT assay. Type of data set: functional.

Consider `C=C1C(=O)O[C@H](C2=C(C)C(O)CC2=O)[C@@H]1CCC(C)=O` (mixture of isomers), for which the Activity result in data set [1] was “Dose-dependent effect”; in [2], 2%; in data set [3], 0%; in data set [4], 2%; in [5] it was 0%; in [6], 5%. Further, the Activity in [7] was 0%; in data set [8] it was 3%; in data set [9] it was 3%. Moreover, the IC50 in data set [1] is 19.1 µg/mL.

With `C=C1C(=O)O[C@H](C2=C(C)[C@@H](O)CC2=O)[C@@H]1CCC(C)=O`, the Activity result in data set [1] is “Dose-dependent effect”; in [2], 0%; in data set [3] it was 0%; in data set [4], 4%; in data set [5], 2%; in [6], 11%. The values for the Activity in [8] and in [9] were 11% and 18%, respectively. Moreover, in data set [1], the IC50 is 13 µg/mL (≈ 46.7 µM).

In the case of `C=C1C(=O)O[C@H](C2=C(C)C(OC)CC2=O)[C@@H]1[C@@H](O)CC(C)=O` (stereo not given in full), the Activity result in data set [1] is “Dose-dependent effect”; in [2], 4%; in data set [3], 2%; in [4], 4%; in [5], 1%; in data set [6], 4%. The Activity came to 0% in data set [7], 5% in [8] and 4% in data set [9]. In data set [1], this compound registered an IC50 of 16.7 µg/mL (≈ 54.2 µM).

Take `C=C1C(=O)O[C@H](C2=C(C)[C@@H](OC)CC2=O)[C@@H]1CCC(C)=O`: the Activity in [10] is above 10%; in data set [11], “Toxic”; in data set [1], “Dose-dependent effect”; in [2], 7%; in data set [13], above 10%; in data set [3] it was 0%. Further, the Activity in data set [4] is given as 7%; in data set [5] it was 0%; in [14], 44%; in data set [6] it was 5%; in data set [7] it was 0%; in data set [8], 7%. Further, the figures for the Activity in [9] and in data set [15] were 7% and 66%, respectively. The IC50 in data set [1] is 7.1 µg/mL (≈ 24.3 µM). In addition, the result in data set [12] was Active.
